Like-named read-outs stand apart in the source and are kept apart here.
What was measured:
[1] = Biodistribution of 99mTc complexes in rats; assay type: in vivo, Australian Albino Wistar Rats; settings: for tissue uptake at 0.5 min / tissue uptake at 1 min / tissue uptake at 0.05 h / tissue uptake at 5 min / tissue uptake at 10 min: rat; for tissue uptake at 0.5 min: 30 sec
Method in brief: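 Chelators were dissolved in basic saline, brought to about pH 6 with HCl, and reduced with excess stannous chloride before one equivalent volume of sodium 99mTcO4 (10-50 mCi/ml) was added, giving roughly 1 mg/ml chelator. Labelling efficacy was checked by ITLC-SG. Complexes were diluted in saline to 15 μCi/100 μl for rat biodistribution, with tissue uptake expressed as %ID/g.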

[2] = Biodistribution of 99mTc complexes in mice; assay type: in vivo, Balb/c mice
Method in brief: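 Chelator (approx. 1 mg/ml final) labelled with 99mTc via excess stannous chloride at pH approx. 6, labelling efficacy checked by ITLC-SG. Complexes diluted to 15 μCi/100 μl in saline before dosing to mice.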

[3] = blood, rats, read-out: biodistribution blood
[4] = bone, rats, read-out: biodistribution bone
[5] = brain, rats, read-out: biodistribution brain
[6] = eyes, rats, read-out: biodistribution eyes
[7] = heart, rats, read-out: biodistribution heart
[8] = kidneys, rats, read-out: biodistribution kidneys
[9] = liver, rats, read-out: biodistribution liver
[10] = lungs, rats, read-out: biodistribution lungs
[11] = muscle, rats, read-out: biodistribution muscle
[12] = pancreas, rats, read-out: biodistribution pancreas
[13] = skin, rats, read-out: biodistribution skin
[14] = spleen, rats, read-out: biodistribution spleen
[15] = stomach, rats, read-out: biodistribution stomach
[16] = tail, rats, read-out: biodistribution tail
[17] = thymus, rats, read-out: biodistribution thymus
[18] = thyroid, rats, read-out: biodistribution thyroid
[19] = total git, rats, read-out: biodistribution tot GIT

Compound: CC(C)(C)c1ccc(O)c(NC(=O)CN(CCN(CC(=O)O)CC(=O)Nc2cc(C(C)(C)C)ccc2O)CC(=O)O)c1 [Compound 4]
- hepatobiliary passage ([1]; Tables 2 and 4): specifically traverse the hepatobiliary system
- tissue uptake at 0.5 min [1, 3]: 5.84 %ID/g
- tissue uptake at 1 min [1, 3]: 3.96 %ID/g
- tissue uptake at 0.05 h ([1]; blood, rats, 3 minutes, selected data, read-out: Blood): 1.71 %ID/g
- tissue uptake at 5 min [1, 3]: 1.33 %ID/g
- tissue uptake at 10 min [1, 3]: 0.99 %ID/g
- tissue uptake at 0.5 min [1, 4]: 0.61 %ID/g
- tissue uptake at 1 min [1, 4]: 0.54 %ID/g
- tissue uptake at 0.05 h ([1]; bone, rats, 3 min, read-out: biodistribution bone): 0.32 %ID/g
- tissue uptake at 5 min [1, 4]: 0.26 %ID/g
- tissue uptake at 10 min [1, 4]: 0.19 %ID/g
- tissue uptake at 0.5 min [1, 5]: 0.43 %ID/g
- tissue uptake at 1 min [1, 5]: 0.26 %ID/g
- tissue uptake at 0.05 h ([1]; brain, rats, 3 min, read-out: biodistribution brain): 0.12 %ID/g
- tissue uptake at 5 min [1, 5]: 0.08 %ID/g
- tissue uptake at 10 min [1, 5]: 0.06 %ID/g
- tissue uptake at 0.5 min [1, 6]: 0.22 %ID/g
- tissue uptake at 1 min [1, 6]: 0.19 %ID/g
- tissue uptake at 0.05 h ([1]; eyes, rats, 3 min, read-out: biodistribution eyes): 0.15 %ID/g
- tissue uptake at 5 min [1, 6]: 0.13 %ID/g
- tissue uptake at 10 min [1, 6]: 0.16 %ID/g
- tissue uptake at 0.5 min [1, 7]: 1.78 %ID/g
- tissue uptake at 1 min [1, 7]: 1.26 %ID/g
- tissue uptake at 0.05 h ([1]; heart, rats, 3 min, read-out: biodistribution heart): 0.65 %ID/g
- tissue uptake at 5 min [1, 7]: 0.48 %ID/g
- tissue uptake at 10 min [1, 7]: 0.36 %ID/g
- tissue uptake at 0.05 h ([1]; kidney, rats, 3 minutes, selected data, read-out: Kidney): 4.54 %ID/g
- tissue uptake at 0.5 min [1, 8]: 5.57 %ID/g
- tissue uptake at 1 min [1, 8]: 4.86 %ID/g
- tissue uptake at 0.05 h ([1]; kidneys, rats, 3 min, read-out: biodistribution kidneys): 4.54 %ID/g
- tissue uptake at 5 min [1, 8]: 3.89 %ID/g
- tissue uptake at 10 min [1, 8]: 2.33 %ID/g
- tissue uptake at 0.5 min [1, 9]: 6.83 %ID/g
- tissue uptake at 1 min [1, 9]: 8.03 %ID/g
- tissue uptake at 0.05 h ([1]; liver, rats, 3 minutes, selected data, read-out: Liver): 7.89 %ID/g
- tissue uptake at 5 min [1, 9]: 7.39 %ID/g
- tissue uptake at 10 min [1, 9]: 4.9 %ID/g
- tissue uptake at 0.5 min [1, 10]: 2.37 %ID/g
- tissue uptake at 1 min [1, 10]: 1.67 %ID/g
- tissue uptake at 0.05 h ([1]; lungs, rats, 3 min, read-out: biodistribution lungs): 1 %ID/g
- tissue uptake at 5 min [1, 10]: 0.66 %ID/g
- tissue uptake at 10 min [1, 10]: 0.53 %ID/g
- tissue uptake at 0.5 min [1, 11]: 0.36 %ID/g
- tissue uptake at 1 min [1, 11]: 0.29 %ID/g
- tissue uptake at 0.05 h ([1]; muscle, rats, 3 min, read-out: biodistribution muscle): 0.22 %ID/g
- tissue uptake at 5 min [1, 11]: 0.18 %ID/g
- tissue uptake at 10 min [1, 11]: 0.13 %ID/g
- tissue uptake at 0.5 min [1, 12]: 0.9 %ID/g
- tissue uptake at 1 min [1, 12]: 0.69 %ID/g
- tissue uptake at 0.05 h ([1]; pancreas, rats, 3 min, read-out: biodistribution pancreas): 0.55 %ID/g
- tissue uptake at 5 min [1, 12]: 0.32 %ID/g
- tissue uptake at 10 min [1, 12]: 0.39 %ID/g
- tissue uptake at 0.5 min [1, 13]: 0.53 %ID/g
- tissue uptake at 1 min [1, 13]: 0.51 %ID/g
- tissue uptake at 0.05 h ([1]; skin, rats, 3 min, read-out: biodistribution skin): 0.46 %ID/g
- tissue uptake at 5 min [1, 13]: 0.37 %ID/g
- tissue uptake at 10 min [1, 13]: 0.36 %ID/g
- tissue uptake at 0.5 min [1, 14]: 0.93 %ID/g
- tissue uptake at 1 min [1, 14]: 0.8 %ID/g
- tissue uptake at 0.05 h ([1]; spleen, rats, 3 min, read-out: biodistribution spleen): 0.42 %ID/g
- tissue uptake at 5 min [1, 14]: 0.32 %ID/g
- tissue uptake at 10 min [1, 14]: 0.27 %ID/g
- tissue uptake at 0.5 min [1, 15]: 1.04 %ID/g
- tissue uptake at 1 min [1, 15]: 0.95 %ID/g
- tissue uptake at 0.05 h ([1]; stomach, rats, 3 min, read-out: biodistribution stomach): 3.09 %ID/g
- tissue uptake at 5 min [1, 15]: 2.71 %ID/g
- tissue uptake at 10 min [1, 15]: 3.8 %ID/g
- tissue uptake at 0.5 min [1, 16]: 1.03 %ID/g
- tissue uptake at 1 min [1, 16]: 0.53 %ID/g
- tissue uptake at 0.05 h ([1]; tail, rats, 3 min, read-out: biodistribution tail): 0.39 %ID/g
- tissue uptake at 5 min [1, 16]: 1.23 %ID/g
- tissue uptake at 10 min [1, 16]: 0.32 %ID/g
- tissue uptake at 0.5 min [1, 17]: 0.66 %ID/g
- tissue uptake at 1 min [1, 17]: 0.49 %ID/g
- tissue uptake at 0.05 h ([1]; thymus, rats, 3 min, read-out: biodistribution thymus): 0.31 %ID/g
- tissue uptake at 5 min [1, 17]: 0.22 %ID/g
- tissue uptake at 10 min [1, 17]: 0.19 %ID/g
- tissue uptake at 0.5 min [1, 18]: 3.49 %ID/g
- tissue uptake at 1 min [1, 18]: 2.28 %ID/g
- tissue uptake at 0.05 h ([1]; thyroid, rats, 3 min, read-out: biodistribution thyroid): 1.11 %ID/g
- tissue uptake at 5 min [1, 18]: 0.89 %ID/g
- tissue uptake at 10 min [1, 18]: 0.79 %ID/g
- tissue uptake at 0.5 min [1, 19]: 0.61 %ID/g
- tissue uptake at 1 min [1, 19]: 0.74 %ID/g
- tissue uptake at 0.05 h ([1]; total git, rats, 3 min, read-out: biodistribution tot GIT): 1.59 %ID/g
- tissue uptake at 5 min [1, 19]: 2.62 %ID/g
- tissue uptake at 10 min [1, 19]: 5.16 %ID/g
- tissue uptake at 10 min ([1]; urine, rats, read-out: biodistribution urine): 0.08 %ID/g
- liver versus kidney uptake ([1]; rats): preference for the liver uptake as opposed to the kidney
- biodistribution blood ([1]; rats, 3 min): 1.71 % Injected dose per gram
- biodistribution liver ([1]; rats, 3 min): 7.89 % Injected dose per gram
- biodistribution GIT ([2]; 1 min): 3.96 % Injected dose
- biodistribution bladder ([2]; 1 min): 0.06 % Injected dose
- biodistribution blood ([2]; 1 min): 34.01 % Injected dose
- biodistribution bone ([2]; 1 min): 6.4 % Injected dose
- biodistribution heart ([2]; 1 min): 0.6 % Injected dose
- biodistribution kidney ([2]; 1 min): 7.83 % Injected dose
- biodistribution liver ([2]; 1 min): 31.82 % Injected dose
- biodistribution lungs ([2]; 1 min): 1.29 % Injected dose
- biodistribution muscle ([2]; 1 min): 11.85 % Injected dose
- biodistribution skin ([2]; 1 min): 8.94 % Injected dose
- biodistribution spleen ([2]; 1 min): 0.21 % Injected dose
- biodistribution stomach ([2]; 1 min): 0.52 % Injected dose
- biodistribution tail ([2]; 1 min): 4.62 % Injected dose
- biodistribution urine ([2]; 1 min): 0 % Injected dose
- biodistribution GIT ([2]; 3 min): 8.34 % Injected dose
- biodistribution bladder ([2]; 3 min): 0.09 % Injected dose
- biodistribution blood ([2]; 3 min): 12.06 % Injected dose
- biodistribution bone ([2]; 3 min): 2.5 % Injected dose
- biodistribution heart ([2]; 3 min): 0.22 % Injected dose
- biodistribution kidney ([2]; 3 min): 6.27 % Injected dose
- biodistribution liver ([2]; 3 min): 40.23 % Injected dose
- biodistribution lungs ([2]; 3 min): 0.56 % Injected dose
- biodistribution muscle ([2]; 3 min): 9.92 % Injected dose
- biodistribution skin ([2]; 3 min): 9.02 % Injected dose
- biodistribution spleen ([2]; 3 min): 0.12 % Injected dose
- biodistribution stomach ([2]; 3 min): 0.61 % Injected dose
- biodistribution tail ([2]; 3 min): 2.02 % Injected dose
- biodistribution urine ([2]; 3 min): 0.84 % Injected dose
- biodistribution GIT ([2]; 5 min): 13.7 % Injected dose
- biodistribution bladder ([2]; 5 min): 0.04 % Injected dose
- biodistribution blood ([2]; 5 min): 7.87 % Injected dose
- biodistribution bone ([2]; 5 min): 2.84 % Injected dose
- biodistribution heart ([2]; 5 min): 0.16 % Injected dose
- biodistribution kidney ([2]; 5 min): 4.18 % Injected dose
- biodistribution liver ([2]; 5 min): 30.24 % Injected dose
- biodistribution lungs ([2]; 5 min): 0.68 % Injected dose
- biodistribution muscle ([2]; 5 min): 7.77 % Injected dose
- biodistribution skin ([2]; 5 min): 8.67 % Injected dose
- biodistribution spleen ([2]; 5 min): 0.1 % Injected dose
- biodistribution stomach ([2]; 5 min): 3.96 % Injected dose
- biodistribution tail ([2]; 5 min): 4.63 % Injected dose
- biodistribution urine ([2]; 5 min): 1.55 % Injected dose
- biodistribution GIT ([2]; 10 min): 33.63 % Injected dose
- biodistribution bladder ([2]; 10 min): 0.17 % Injected dose
- biodistribution blood ([2]; 10 min): 5.04 % Injected dose
- biodistribution bone ([2]; 10 min): 2.08 % Injected dose
- biodistribution heart ([2]; 10 min): 0.13 % Injected dose
- biodistribution kidney ([2]; 10 min): 3.57 % Injected dose
- biodistribution liver ([2]; 10 min): 21.19 % Injected dose
- biodistribution lungs ([2]; 10 min): 0.52 % Injected dose
- biodistribution muscle ([2]; 10 min): 4.95 % Injected dose
- biodistribution skin ([2]; 10 min): 7.3 % Injected dose
- biodistribution spleen ([2]; 10 min): 0.07 % Injected dose
- biodistribution stomach ([2]; 10 min): 0.7 % Injected dose
- biodistribution tail ([2]; 10 min): 3.58 % Injected dose
- biodistribution urine ([2]; 10 min): 4.27 % Injected dose
- biodistribution GIT ([2]; 30 min): 39.97 % Injected dose
- biodistribution bladder ([2]; 30 min): 0.08 % Injected dose
- biodistribution blood ([2]; 30 min): 3.88 % Injected dose
- biodistribution bone ([2]; 30 min): 1.67 % Injected dose
- biodistribution heart ([2]; 30 min): 0.05 % Injected dose
- biodistribution kidney ([2]; 30 min): 3.67 % Injected dose
- biodistribution liver ([2]; 30 min): 12.48 % Injected dose
- biodistribution lungs ([2]; 30 min): 0.26 % Injected dose
- biodistribution muscle ([2]; 30 min): 3.35 % Injected dose
- biodistribution skin ([2]; 30 min): 4 % Injected dose
- biodistribution spleen ([2]; 30 min): 0.06 % Injected dose
- biodistribution stomach ([2]; 30 min): 4.84 % Injected dose
- biodistribution tail ([2]; 30 min): 1.91 % Injected dose
- biodistribution urine ([2]; 30 min): 3.21 % Injected dose

From US5807535A, “Metal complexes of hydroxyaryl containing aminocarboxylic acid chelating agents” (Australian Nuclear Science & Technology Organisation, priority 1992, dated 1998)
